Test results as given in US4237225A, “Process for preparing tunicamycin” (priority 1978, dated 1980).

Tests used:
Assay type in all cases: cell-based
Bacillus subtilis = test: standard paper-disc inhibition test, zone of inhibition, Bacillus subtilis; details: in vitro
Source text: (§1) The zones of inhibition, as determined in these tests, are shown below: […]

[1] = system: certain pathogenic organisms, particularly gram positive bacteria, fungi, and yeasts; test: in vitro standard paper-disc inhibition tests (summary statement)
Source text: as §1

[2] = system: Saccharomyces pastorianus; test: standard paper-disc inhibition test, zone of inhibition, Saccharomyces pastorianus; details: in vitro
Source text: as §1

Micrococcus luteus = test: standard paper-disc inhibition test, zone of inhibition, Micrococcus luteus; details: in vitro
Source text: as §1

Staphylococcus aureus = test: standard paper-disc inhibition test, zone of inhibition, Staphylococcus aureus; details: in vitro
Source text: as §1

Neurospora crassa = test: standard paper-disc inhibition test, zone of inhibition, Neurospora crassa; details: in vitro
Source text: as §1

Candida albicans = test: standard paper-disc inhibition test, zone of inhibition, Candida albicans; details: in vitro
Source text: as §1

[3] = Bacillus subtilis in minimal medium

SMILES: CC(=O)NC1C(OC2OC(CC(O)C3OC(n4ccc(=O)[nH]c4=O)C(O)C3O)C(O)C(O)C2NC(=O)/C=C/CCCCCCCCCCCC(C)C)OC(CO)C(O)C1O (stereo not drawn) [Tunicamycin D]
- Zone Diameter (Bacillus subtilis; [3]): 27 mm
- Zone Diameter (Bacillus subtilis; Bacillus subtilis): 19 mm
- growth inhibition of certain pathogenic organisms [1]: inhibit the growth
- Zone Diameter [2]: 13 mm
- Zone Diameter (Micrococcus luteus): tr (trace (6.5-9 mm))
- Zone Diameter (Staphylococcus aureus): tr (trace (6.5-9 mm))
- Zone Diameter (Neurospora crassa): tr (trace (6.5-9 mm))
- Zone Diameter (Candida albicans): 11 mm

SMILES: CC(=O)NC1C(OC2OC(CC(O)C3OC(n4ccc(=O)[nH]c4=O)C(O)C3O)C(O)C(O)C2NC(=O)/C=C/CCCCCCCCC(C)C)OC(CO)C(O)C1O (stereo not drawn) [Tunicamycin C]
- Zone Diameter (Bacillus subtilis; [3]): 36 mm
- Zone Diameter (Bacillus subtilis; Bacillus subtilis): 28 mm
- growth inhibition of certain pathogenic organisms [1]: inhibit the growth
- Zone Diameter [2]: 16 mm
- Zone Diameter (Micrococcus luteus): tr (trace (6.5-9 mm))
- Zone Diameter (Neurospora crassa): 10 mm
- Zone Diameter (Candida albicans): 14 mm

SMILES: CC(=O)NC1C(OC2OC(CC(O)C3OC(n4ccc(=O)[nH]c4=O)C(O)C3O)C(O)C(O)C2NC(=O)/C=C/CCCCCCCCCC(C)C)OC(CO)C(O)C1O (stereo not drawn) [Tunicamycin A]
- Zone Diameter (Bacillus subtilis; [3]): 35 mm
- Zone Diameter (Bacillus subtilis; Bacillus subtilis): 25 mm
- growth inhibition of certain pathogenic organisms [1]: inhibit the growth
- Zone Diameter [2]: 18 mm
- Zone Diameter (Staphylococcus aureus): tr (trace (6.5-9 mm))
- Zone Diameter (Neurospora crassa): 10 mm
- Zone Diameter (Candida albicans): 15 mm

SMILES: CC(=O)NC1C(OC2OC(CC(O)C3OC(n4ccc(=O)[nH]c4=O)C(O)C3O)C(O)C(O)C2NC(=O)/C=C/CCCCCCCCCCC(C)C)OC(CO)C(O)C1O (stereo not drawn) [Tunicamycin B]
- Zone Diameter (Bacillus subtilis; [3]): 29 mm
- Zone Diameter (Bacillus subtilis; Bacillus subtilis): 19 mm
- growth inhibition of certain pathogenic organisms [1]: inhibit the growth
- Zone Diameter [2]: 23 mm
- Zone Diameter (Micrococcus luteus): 10 mm
- Zone Diameter (Staphylococcus aureus): tr (trace (6.5-9 mm))
- Zone Diameter (Neurospora crassa): 10 mm
- Zone Diameter (Candida albicans): 12 mm
